Assay results as given in the supplement of paper PMC13380429.

Tests used:
Details in all cases: 72 h
HepG2 [1] = test: relative viability EC50 (midpoint between 100% and the lowest measured viability); higher = less toxic
Caco-2 [2] = test: as above
Vero E6 [3] = test: as above
U2OS [4] = test: as above
Calu-3 [5] = test: as above
HepG2 [6] = test: drug sensitivity score (DSS) for viability; higher = more toxic; extreme values may be limits of the assay
Caco-2 [7] = test: as above
Vero E6 [8] = test: as above
U2OS [9] = test: as above
Calu-3 [10] = test: as above
HepG2 [11] = test: cell viability relative to DMSO; higher = less toxic
Caco-2 [12] = test: as above
Vero E6 [13] = test: as above
U2OS [14] = test: as above
Calu-3 [15] = test: as above

| SMILES | relative viability EC50 (HepG2 [1]) [µM] | relative viability EC50 (Caco-2 [2]) [µM] | relative viability EC50 (Vero E6 [3]) [µM] | relative viability EC50 (U2OS [4]) [µM] | relative viability EC50 (Calu-3 [5]) [µM] | drug sensitivity score (HepG2 [6]) | drug sensitivity score (Caco-2 [7]) | drug sensitivity score (Vero E6 [8]) | drug sensitivity score (U2OS [9]) | drug sensitivity score (Calu-3 [10]) | cell viability (HepG2 [11]; 1 nM) [%] | cell viability (HepG2 [11]; 10 nM) [%] | cell viability (HepG2 [11]; 100 nM) [%] | cell viability (HepG2 [11]; 1000 nM) [%] | cell viability (HepG2 [11]; 10000 nM) [%] | cell viability (Caco-2 [12]; 1 nM) [%] | cell viability (Caco-2 [12]; 10 nM) [%] | cell viability (Caco-2 [12]; 100 nM) [%] | cell viability (Caco-2 [12]; 1000 nM) [%] | cell viability (Caco-2 [12]; 10000 nM) [%] | cell viability (Vero E6 [13]; 1 nM) [%] | cell viability (Vero E6 [13]; 10 nM) [%] | cell viability (Vero E6 [13]; 100 nM) [%] | cell viability (Vero E6 [13]; 1000 nM) [%] | cell viability (Vero E6 [13]; 10000 nM) [%] | cell viability (U2OS [14]; 1 nM) [%] | cell viability (U2OS [14]; 10 nM) [%] | cell viability (U2OS [14]; 100 nM) [%] | cell viability (U2OS [14]; 1000 nM) [%] | cell viability (U2OS [14]; 10000 nM) [%] | cell viability (Calu-3 [15]; 1 nM) [%] | cell viability (Calu-3 [15]; 10 nM) [%] | cell viability (Calu-3 [15]; 100 nM) [%] | cell viability (Calu-3 [15]; 1000 nM) [%] | cell viability (Calu-3 [15]; 10000 nM) [%] |
| --- | --- | --- | --- | --- | --- | --- | --- | --- | --- | --- | --- | --- | --- | --- | --- | --- | --- | --- | --- | --- | --- | --- | --- | --- | --- | --- | --- | --- | --- | --- | --- | --- | --- | --- | --- |
| Cc1nccc2c1[nH]c1ccccc12 [harmane] | > 10 | > 10 | > 10 | > 10 | > 10 | 0 | 0 | 0 | 0 | 0 | 92.9 | 96.2 | 99.6 | 99.1 | 105 | 95.1 | 101 | 105 | 102 | 93 | 97.2 | 102 | 94.3 | 96.6 | 98.2 | 101 | 98.8 | 100 | 97.5 | 101 | 106 | 97.7 | 101 | 91.8 | 103 |
| CCOCc1nc2c(N)nc3ccccc3c2n1CC(C)(C)O [resiquimod] | > 10 | > 10 | > 10 | > 10 | > 10 | 0 | 0 | 0 | 0 | 0 | 103 | 104 | 103 | 101 | 94.5 | 97.7 | 96.7 | 97.3 | 90.4 | 91.3 | 108 | 101 | 100 | 99.9 | 102 | 99.7 | 103 | 101 | 100 | 97.8 | 102 | 101 | 94.7 | 101 | 92 |
| CCN1CCCC1CNC(=O)c1cc(S(=O)(=O)CC)c(N)cc1OC (stereo not given) [amisulpride] | > 10 | > 10 | > 10 | > 10 | > 10 | 0 | 0 | 0 | 0 | 0 | 104 | 104 | 94.6 | 99.3 | 102 | 98.8 | 88.6 | 96.7 | 97.1 | 96.1 | 98.6 | 106 | 99.4 | 98.5 | 98.8 | 103 | 99.9 | 102 | 98.5 | 103 | 96.4 | 103 | 99.2 | 104 | 103 |
| O=C1Nc2ccc(Cl)cc2[C@@](C#CC2CC2)(C(F)(F)F)O1 [efavirenz] | > 10 | > 10 | > 10 | > 10 | > 10 | 0 | 0 | 0 | 0 | 0 | 92.1 | 86.1 | 95.9 | 83.4 | 94.6 | 95.7 | 96.3 | 83.3 | 96.3 | 124 | 98.4 | 93.5 | 91.4 | 90 | 101 | 99.2 | 96.3 | 98.4 | 106 | 94.5 | 97.5 | 107 | 93.8 | 97.7 | 114 |
| C1CCN2C[C@@H]3C[C@@H](CN4CCCC[C@@H]34)[C@H]2C1 [sparteine-sulfate] | > 10 | > 10 | > 10 | > 10 | > 10 | 0 | 2.6 | 0 | 0 | 0 | 94.9 | 101 | 102 | 89 | 102 | 84.7 | 87.4 | 81.4 | 78.5 | 105 | 97.4 | 98.7 | 82.1 | 93.6 | 105 | 105 | 99.7 | 104 | 97.6 | 100 | 114 | 104 | 108 | 116 | 86.7 |
| N[C@H]1C[C@@H]1c1ccccc1 (racemic) [tranylcypromine] | > 10 | > 10 | > 10 | > 10 | > 10 | 0 | 0 | 0 | 0 | 0 | 104 | 103 | 97 | 98.5 | 100 | 90.7 | 106 | 93.7 | 104 | 104 | 100 | 99.8 | 93.3 | 97.1 | 108 | 96.6 | 102 | 97.7 | 103 | 103 | 92.5 | 97.7 | 97.6 | 100 | 99.7 |
| O=C(c1c2ccccc2cc2ccccc12)N1CCC(N2CCC[C@@H](C(=O)N3CCOCC3)C2)CC1 | > 10 | > 10 | > 10 | > 10 | > 10 | 1.1 | 0 | 0 | 0 | 0 | 93.7 | 93.2 | 96.9 | 85.3 | 82.3 | 84.6 | 100 | 87.3 | 94.3 | 87.2 | 97.9 | 93.4 | 93.8 | 89.7 | 99.8 | 92.7 | 98.9 | 102 | 103 | 101 | 100 | 99.8 | 105 | 113 | 117 |
